Columns and labels:
[1] = tested on: cell-free protein translation (BMV mRNA, ribosomes); experiment: Cell-free protein translation of Brome mosaic virus (BMV) mRNA with ribosomes; assay type: biochemical; conditions: for effect on in vitro protein translation: relevant (nM) concentrations, SDS-PAGE
Method: The effect of IMD-019064 on cell-free protein translation in vitro was investigated (see also assay principle in FIG. 8). Brome mosaic virus (BMV) mRNA encoding for 4 different viral proteins was incubated with ribosomes in the presence and absence of IMD-019064 (FIG. 9a), IMD-026259, IMD-026260 (FIG. 9b), or cycloheximide (Chx, 10 μM) (positive control) and the formed proteins analyzed by SDS-PAGE.
Panels show representative SDS-PAGE protein gels. Vehicle-containing translation reactions (Veh) represent 100% translation efficacy, while Cycloheximide (Chx; 10 μg/ml) a known inhibitor of protein translation that was used as a positive control does show significant protein reduction.

[2] = tested on: IKKy/NEMO; experiment: Cellular protein translation in 293T cells (anti-IKKy/NEMO immunoblotting); assay type: cell-based, human; conditions: 10 h and 24 h; for anti-IKKy/NEMO signal (cellular protein translation): 100 nM
Method: 293T cells were grown in the presence of the known translation inhibitor cycloheximide (10 μg/ml) and 100 nM of IMD-019064, IMD-026259 and IMD-026260 respectively. […] Cells were harvested after 10 h and 24 h and cell lysates were produced. Equal amounts of protein contained in the cell lysates were used for immunoblotting with anti-IKKy/NEMO antibodies as shown in FIG. 12. IKKy/NEMO is a constitutively expressed relatively labile protein. Thus successful inhibition of cellular protein translation should result in significant decline of anti-IKKy/NEMO signal.

[3] = tested on: HIF-1α protein; experiment: Hypoxia induced HIF-1α protein accumulation in 293T cells (immunoblotting); assay type: cell-based, human; conditions: 250 nM, 1 h preincubation, hypoxia 4 h, 1% O2
Method: Effects of IMD-026259, IMD-026260 and IMD-019064 on the stabilisation/accumulation of HIF-1α protein were investigated. 293T cells were preincubated with the indicated concentrations of all three compounds. After 1 h of pre-incubation, 293T cells were pre-incubated with the indicated concentrations of compounds and then further incubated under normoxic or hypoxic (4 h, 1% O2) conditions respectively. After lysis of cells in 1×SDS sample buffer and sonication, the samples were analyzed for HIF-1α abundance by immunoblotting.

[4] = tested on: endothelial cells; experiment: Incorporation of radiolabeled amino acids into unstimulated and IL-1b-stimulated endothelial cells; assay type: cell-based
Method: Compounds of the formula (I) have been reported in the literature to be un-specific inhibitors of protein synthesis. Thus, the question whether IMD-019064 (a rocaglaol derivative) is a direct inhibitor of protein synthesis has been addressed at different levels. Cellular assays (incorporation of radiolabeled amino acids into unstimulated and IL-1b-stimulated endothelial cells) were performed in order to investigate if inhibition of activated signaling cascades (e.g. IL-1 signalling pathway) may contribute to inhibitory activity of IMD-019064.

[5] = tested on: HUVEC; experiment: Spheroid-based angiogenesis assay, Deferoxamine (hypoxia) induced HUVEC sprouting; assay type: cell-based, human
Method: (§1) Prior application the stock solution [100 mM] of IMD-019064 was diluted 1:10 in DMSO and serially diluted in half logarithmic steps covering the concentration range from 10 mM to 1 μM using 100% DMSO. The final assay concentration ranged from 100 μM to 10 nM with a final DMSO concentration in the assay of 1%. The experiments were pursued in modification of the originally published protocol (Korff and Augustin: J Cell Sci 112: 3249-58, 1999). In brief, spheroids were prepared as described by Korff and Augustin: J Cell Biol 143: 1341-52, 1998) by pipetting 500 endothelial cells (EC) in a hanging drop on plastic dishes to allow overnight spheroid aggregation. 50 EC spheroids were then embedded in 0.9 ml of a 3D collagen matrix and pipetted into individual wells of a 24 well plate to allow polymerization.
(§2) Plates were incubated at 37° C. for 24 hours and fixed by adding 4% paraformaldehyde. The cumulative sprout length of 10 randomly selected spheroids per data point was analyzed and the relative inhibition by the test compound determined. Fitting of IC50 curves and calculation of IC50 values was performed with GraphPad Prism 5.01. Sprouting intensity of EC and fibroblast spheroids was quantitated by an image analysis system using an inverted microscope and the digital imaging software Analysis 3.2 (Soft imaging system, Munster, Germany). In parallel NHDF (fibroblast) spheroids were embedded in a 3D collagen gel and treated for 24 h with different concentrations of IMD-019064. The cumulative sprout length of 10 randomly selected spheroids per data point was analyzed according to the procedure used for the HUVEC experiment.
The same assays were performed with IMD-026260; IMD-026259; Sutent® (Sunitinib) and Sorafenib (Nexavar®) (see Table 3 for final compound concentrations).

[6] = tested on: NHDF (fibroblast); experiment: NHDF (fibroblast) spheroid sprouting/scattering in 3D collagen gel; assay type: cell-based; conditions: Homo sapiens, 24 h, read-out: IC50, NHDF fibroblast spheroid sprouting/scattering
Method: as §1, with “50 EC spheroids were then embedded in 0.9 ml of a 3D collagen matrix and pipetted into individual wells of a 24 well plate to allow polymerization.” left out
as §2, with “Fitting of IC50 curves and calculation of IC50 values was performed with GraphPad Prism 5.01.” left out, “In parallel NHDF (fibroblast) spheroids were embedded in a 3D collagen gel and treated for 24 h with different concentrations of IMD-019064.” left out, “experiment. […]” for “experiment.”

[7] = tested on: HUVEC; experiment: Spheroid-based angiogenesis assay, VEGF-A induced HUVEC sprouting; assay type: cell-based, human; conditions: after hypoxic or VEGF induction, summary statement
Method: As described in Example 4 HUVEC spheroids were generated, cultivated and embedded in a 3D collagen gel and stimulated with Vascular Endothelial Growth Factor alpha [VEGF-A; 25 ng/ml] instead of deferoxamine. Cell spheroids were treated for 24 h with different concentrations of IMD-026259; IMD-026260; Sutent® (Sunitinib) and Sorafenib (Nexavar®) (in Molar [M], as indicated in Table 4; see also FIG. 14A).
The cumulative sprout length of 10 randomly selected spheroids per data point was analyzed and the relative inhibition by the test compound determined. Fitting of IC50 curves and calculation of IC50 values was performed with GraphPad Prism® 5.01 (trademarked by GraphPad Software Inc.). […] Results from the examples described above are summarized in FIG. 14b IC50 values are given in nM for in vitro angiogenesis (HUVEC sprouting) studies after hypoxic or VEGF induction.

[8] = tested on: HIF-1; experiment: HIF-1-dependent luciferase reporter gene activity in 293T cells under hypoxia; assay type: cell-based, human; conditions: for time-dependency of inhibition of HIF-1-dependent luciferase expression: 250 nM, added 4 hours after induction of hypoxia (8 h, 1% O2)
Method: A HIF-1-dependent luciferase reporter gene was transfected into 293T cells by transfection with Rotifect™ (Trademarked by Carl Roth GmbH; Karlsruhe, Germany) or alternatively into Jurkat T cells by electroporation. Both cell lines were transfected with a HIF-1-dependent reporter gene. The next day, cells were preincubated for 1 h with the indicated, submicromolar concentrations of the test compounds and then incubated for further 8 h under normoxic or hypoxic (1% O2) conditions. After that, cells were harvested followed by the analysis of luciferase activity in a luminometer.
A HIF-1-dependent luciferase reporter gene was transfected into 293T cells. The next morning, cells were pretreated for 1 h with the indicated concentrations of compounds, followed by induction of hypoxia (hypoxia chamber) for 8 h. Subsequently cells were harvested and lyzed. Luciferase activity in cell extracts was measured in a luminometer (Duo Lumat LB 9507, Berthold) by injecting 20 microliter of assay buffer to 20 microliter of extract. Light emission was measured for 10 s, relative light units are given.
After transfection of 293T cells with a HIF-1-dependent luciferase reporter gene, cells were further incubated under normoxic or hypoxic (8 h, 1% O2) conditions as shown in FIG. 4. Effectively blocking concentrations of the IMDs (250 nM each) were added either 1 hour prior to hypoxia or 2 and 4 hours after induction of hypoxia.

[9] = tested on: HIF-1α mRNA; experiment: Hif-1α mRNA expression by real-time PCR; assay type: cell-based; conditions: human cells, 250 nM for 3 h, normoxic or hypoxic (45 minutes, 1% O2)
Method: In order to investigate whether the compounds of the invention do exert their HIF-1-1 suppressive action via inhibition of HIF-1-1 transcription the compounds were tested for their effects on HIF-1α mRNA production. In all experiments, human cells were exposed to efficiently blocking concentrations (250 nM) of the test compounds for 3 h. Then cells were further cultivated under normoxic or hypoxic conditions (45 minutes, 1% O2) respectively. Afterwards cell samples were harvested and RNA was extracted. cDNA was synthesized using specific primers and the PE Applied Biosystems Reverse Transcription Reagents. Real-time PCR was performed by using the SYBR Green I detection chemistry (Applied Biosystems) and an ABI Prism 7300 system. The expression of Hif-1α was quantified and results were normalized to Hprt1 and β-Actin (“housekeeping-gene”) expression. The relative abundance of the different genes was calculated by the comparative CT method. HIF-1α transcription of normoxic control cells was arbitrarily set to 1. […] Therefore an effect of IMD-compounds on HIF-1-dependent gene expression seems not to be mediated on HIF-1α transcription (FIG. 5).

[10] = tested on: PDK1 (pyruvate dehydrogenase kinase1); experiment: HIF-1 target gene PDK1 expression in 293T cells by real-time PCR; assay type: cell-based; conditions: Homo sapiens, HEK-293T, 1 h pretreatment, 8 h hypoxia, read-out: IC50, suppression of endogenous PDK1 gene expression
Method: Human 293T cells were cultivated either under normoxic conditions or under hypoxic conditions (1% oxygen) for 4 and 8 hs respectively. Cells were harvested, followed by the isolation of RNA and the generation of cDNAs from Oligo (dT)20 primers using a Reverse Transcriptase kit. Then gene expression was measured by real-time PCR for the following two selected HIF-1α target genes: LDH-A (lactate dehydrogenase isoform A), and PDK1 (pyruvate dehydrogenase kinase1). Real-time PCR was performed with cDNA using specific primers and the SYBR Green I detection chemistry system (Applied Biosystems), utilizing an ABI Prism 7300 system. Actin was also measured as an internal control. The relative abundance of the different genes was calculated by the comparative CT method. In order to facilitate comparison, gene expression under normoxic conditions was arbitrarily set to 1 for each of the three genes. Two independent experiments confirmed PDK1 as the gene which was induced most prominently compared to LDH.
To investigate the capability of the compounds to inhibit PDK1, 293T cells were pretreated for 1 h with 3 different concentrations of the respective inhibitors (IMD-019064; IMD-026259; and IMD-026260). Subsequently, cells were incubated under normoxic/hypoxic conditions for further 8 h and the expression of PDK1 was quantified by real-time PCR as described above.

| SMILES | effect on in vitro protein translation [1] | inhibition of angiogenic sprouting in vitro (HUVEC sprouting) [7] | anti-IKKy/NEMO signal (cellular protein translation) [2] | time-dependency of inhibition of HIF-1-dependent luciferase expression [8] | effect on Hif-1α mRNA production [9] | further results |
| --- | --- | --- | --- | --- | --- | --- |
| C[C@@H]1C[C@@H]([C@H](O)CC2CC(=O)NC(=O)C2)C(=O)[C@@H](C)C1 [cycloheximide, reference compound] |  |  |  |  |  | effect on in vitro protein translation (positive control) ([1]; cycloheximide 10 μM / 10 μg/ml): potently suppressed formation of newly synthesized proteins; inhibition of cellular protein translation (positive control) ([2]; cycloheximide 10 μg/ml): powerful inhibition of protein translation |
| COc1ccc(C23Oc4cc(OC)cc(OC)c4C2(O)C(O)CC3c2cccc(F)c2)cc1 (centres unmarked) [IMD-019064, (1,3,3a,8b)-3-(3-fluorophenyl)-6,8-dimethoxy-3a-(4-methoxyphenyl)-2,3,3a,8b-tetrahydro-1H-benzo[d]cyclopenta[b]furan-1,8b-diol] | No significant effect | potent inhibitors of angiogenic sprouting in vitro | did not result in reduced anti-IKKy/NEMO signals | able to inhibit HIF-1-dependent luciferase expression even when added 4 hours after hypoxic induction | did not show any effects | block of HIF-1α protein accumulation [3]: almost completely block; shift of the dose-response curve to higher concentrations, un-stimulated compared to IL-1 stimulated cells, inhibition of amino acid incorporation [4]: 20 factor; IC50 ([5]; Homo sapiens, HUVEC, 24 h, read-out: IC50, hypoxia induced EC (HUVEC) sprouting): 0.03 µM; difference in HUVEC and fibroblast sensitivity ([5]; NHDF IC50 versus Deferoxamine-induced HUVEC IC50): factor six; IC50 [6]: 0.18 µM |
| OC1CC(c2ccccc2)C2(c3ccc(Cl)cc3)Oc3cc(OCCN4CCCC4)ccc3C12O (centres unmarked) [IMD-026259, (1,3a,8b)-3a-(4-chlorophenyl)-3-phenyl-6-(2-(pyrrolidin-1-yl)ethoxy)-2,3,3a,8b-tetrahydro-1H-benzo[d]cyclopenta[b]furan-1,8b-diol] | No significant effect | potent inhibitors of angiogenic sprouting in vitro | did not result in reduced anti-IKKy/NEMO signals | able to inhibit HIF-1-dependent luciferase expression even when added 4 hours after hypoxic induction | did not show any effects | IC50 [10]: 0.009 µM; IC50 ([8]; Homo sapiens, HEK-293T, 1 h pretreatment, hypoxia 8 h, read-out: IC50, HIF-1 luciferase inhibitory activity): 0.019 µM |
| CNC(=O)c1cc(Oc2ccc(NC(=O)Nc3ccc(Cl)c(C(F)(F)F)c3)cc2)ccn1 [Nexavar, Sorafenib, reference compound] |  |  |  |  |  | activity on HUVEC sprouting ([5]; HUVECs induced by Deferoxamine (hypoxia)): did not show any activity at all |
